In publication PMC5625163, “Incompatibility of chemical protein synthesis inhibitors with accurate measurement of extended protein degradation rates” (Pharmacology Research & Perspectives, 2017):
Counter-ions that a name gives are not always drawn. Like-named read-outs stand apart in the source and are kept apart here. Starred links: 1 amine or outer side, 2 acyl side, 3 side chain; linkers in the order of their positions; H or OH if unused. Positions of bridges follow the written chain, without caps; N, C: chain ends. Non-standard residues stand in square brackets, D forms with d. Residues, ends and D or L forms follow the SMILES beside them. Chains are numbered I, II in the order given. Actinocin(9to1) = Cc1c2oc3c(C)ccc(C(=O)[*:1])c3nc-2c(C(=O)[*:2])c(N)c1=O; NMeV = CN[C@H](C(=O)O)C(C)C; Sar = CNCC(=O)O

Assays:
HepG2 cells [1] = assay: [3H]-leucine incorporation protein synthesis inhibition assay in HepG2 cells; type: cell-based; conditions: Homo sapiens, read-out: IC50 protein synthesis inhibition
[2] = tested on: primary rat hepatocytes (PRH); assay: [3H]-leucine incorporation protein synthesis inhibition assay in primary rat hepatocytes; type: cell-based; conditions: Hepatocyte, 72 h, read-out: IC50 protein synthesis inhibition
[3] = Standard MTT cell viability assay in HepG2 cells; type: cell-based, human; conditions: human
Procedure: (§1) Standard MTT assays were performed on HepG2 and PRH cells to measure cell viability. 2 × 10^4 cells per well of HepG2 were seeded into 96‐well plates in DMEM with 10% FBS and left overnight in a 37°C humidified incubator to allow cells to adhere to the plate. PRH were seeded in collagen coated 96‐well plates at a density of 2 × 10^4 cells per well. Old media was removed and replaced with 0–300 μmol/L of protein synthesis inhibitors and incubated for 72 h. A vehicle control and control with no drug was included. A quantity of 20 μL of 5 mg/mL […] in HBSS was added to each well and incubated for 2 h. A quantity of 100 μL lysis buffer (50% v/v dimethylformahyde and 20% v/v sodium dodecyl sulphate) was added to each well and the plate was incubated overnight at 37°C. The absorbance was quantified at 570 nm by a Tecan GENios micoplate reader (Germany).
(§2) Cycloheximide was incubated at 0–300 μmol/L and emetine at 0–30 μmol/L for both leucine incorporation and MTT assays.
(§3) The IC50 (concentration causing 50% protein synthesis inhibition), CC50 (concentration causing 50% cell viability), and CC10 (concentration causing 90% cell viability) were calculated by nonlinear regression of drug concentration versus leucine incorporation and MTT concentration–response graphs, respectively, using Graphpad Prism 3 software. The IC50 and CC50 values derived from the single inhibitor analyses were used for subsequent fixed‐ratio isobologram two‐drug combination analyses.

HepG2 cells [4] = assay: Standard MTT cell viability assay in HepG2 cells; type: cell-based, human; conditions: 72 h
Procedure: as §1, §2, §3

[5] = Standard MTT cell viability assay in primary rat hepatocytes; type: cell-based; conditions: male, Sprague-Dawley
Procedure: Primary rat hepatocytes (PRH) were purchased from Invitrogen (Paisley, UK), isolated from male Sprague–Dawley rats at 9 weeks old (Lot. RS745). Cryopreserved PRH were thawed in a 37°C water bath for approximately 2 min until contents were around 90% thawed. Once thawed, the hepatocytes were added to 50 mL of prewarmed plating media (William's E media without phenol red supplemented with 5% FBS, 1 μmol/L dexamethasone, 1% solution of penicillin/streptomycin, 4 μg/mL bovine insulin, 2 mmol/L GlutaMAX™, and 15 mmol/L HEPES (CHRM® supplement A), and centrifuged for 3 min at 55g at 18°C and the supernatant fraction discarded. The hepatocytes were then resuspended in plating media at 1 × 10^6 cells per ml density.
as §1, §2, §3

HeLa cells [6] = conditions: cited from earlier work
HeLa cells [7] = tested on: HeLa cells; design: method as in Dudani et al. (1988); conditions: at 0.9 mmol/L in HeLa cells; ref Dudani et al. (1988); cited from earlier work
Huh‐7 cells = conditions: at 10 μmol/L in Huh‐7 cells; ref Yin Low et al. (2009); cited from earlier work
[8] = HepG2 cells, 72 h, single inhibitor, MTT, mean ± SD, read-out: CC50 cytotoxicity (50% cell viability)
[9] = HepG2 cells, single inhibitor, MTT
[10] = PRH, 72 h, single inhibitor, MTT, mean ± SD, read-out: CC50 cytotoxicity (50% cell viability)

SMILES: Cc1c2oc3c(C)ccc(C(=O)N[C@@H]4C(=O)N[C@H](C(C)C)C(=O)N5CCC[C@H]5C(=O)N(C)CC(=O)N(C)[C@@H](C(C)C)C(=O)O[C@@H]4C)c3nc-2c(C(=O)N[C@@H]2C(=O)N[C@H](C(C)C)C(=O)N3CCC[C@H]3C(=O)N(C)CC(=O)N(C)[C@@H](C(C)C)C(=O)O[C@@H]2C)c(N)c1=O [actinomycin D] (I: T[dV]P[Sar][NMeV] / II: T[dV]P[Sar][NMeV]; ester I:1-I:C, II:1-II:C; linker I:N-II:N via Actinocin(9to1))
- IC50 (HepG2 cells [1]; HepG2, 72 h): 0.039 ± 0.0074 µM
- IC50 [2]: 0.0017 ± 0.0018 µM
- CC50 at 72 h [3, 8]: 0.0062 ± 0.0073 µM
- CC10 (90% cell viability concentration) (HepG2 cells [4]; [9]): 0.00017 µM
- CC50 at 72 h [5, 10]: 0.00098 ± 0.0018 µM
- concentration sufficient to cause cell toxicity (HeLa cells [6]; HeLa cells, ref Sawicki and Godman (1971)): 80 nM

SMILES: C[C@@H]1C[C@@H]([C@H](O)CC2CC(=O)NC(=O)C2)C(=O)[C@@H](C)C1 [cycloheximide]
- IC50 (HepG2 cells [1]; HepG2, 72 h): 6.6 ± 2.5 µM
- IC50 [2]: 0.29 ± 0.09 µM
- CC50 at 72 h [3, 8]: 0.57 ± 0.51 µM
- CC10 (90% cell viability concentration) (HepG2 cells [4]; [9]): 0.024 µM
- CC50 at 72 h [5, 10]: 0.68 ± 1.3 µM

SMILES: COc1ccc(C[C@H](N)C(=O)N[C@H]2[C@@H](O)[C@H](n3cnc4c(N(C)C)ncnc43)O[C@@H]2CO)cc1 [puromycin, puromycin dihydrochloride]
- IC50 (HepG2 cells [1]; HepG2 cells, 72 h, single inhibitor, mean ± SD): 1.6 ± 1.2 µM
- IC50 ([2]; PRH, single inhibitor, mean ± SD): 2 ± 2 µM
- CC50 at 72 h [3]: 1.3 ± 0.064 µM
- CC10 (90% cell viability concentration) (HepG2 cells [4]; human): 0.11 µM
- CC50 at 72 h [5]: 1.6 ± 1 µM
- concentration causing cytotoxicity (HeLa cells [6]; human cell lines, including HeLa cells, ref Dudani et al. (1988)): 900 nM
- protein synthesis inhibition (HeLa cells [7]): 79.6%

SMILES: CC[C@H]1CN2CCc3cc(OC)c(OC)cc3[C@@H]2C[C@@H]1C[C@H]1NCCc2cc(OC)c(OC)cc21 [emetine, emetine dihydrochloride hydrate]
- IC50 (HepG2 cells [1]; HepG2, 72 h): 2.2 ± 1.4 µM
- IC50 [2]: 0.62 ± 0.92 µM
- CC50 at 72 h [3, 8]: 0.081 ± 0.009 µM
- CC10 (90% cell viability concentration) (HepG2 cells [4]; [9]): 0.007 µM
- CC50 at 72 h [5, 10]: 0.18 µM
- cell viability (Huh‐7 cells): over 90%
